In brackets after ≈: the same amount, converted by molar mass. Like-named read-outs stand apart in the source and are kept apart here. One block for each compound: values may come before it.
How the values were obtained:
[1] = tested on: A. actinomycetemcomitans ATCC43718; assay: MIC vs. oral germs, broth dilution method; format: cell-based, Actinobacillus actinomycetemcomitans; settings: for MIC: Aggregatibacter actinomycetemcomitans, read-out: MHK (MIC) A. actinomycetemcomitans ATCC43718
From the text: (§1) b) Determination of MIC vs. different oral germs in the broth dilution method • Medium: Thioglycolate Bouillon with Hemin and Menadion Columbia Bouillon with Hemin and Menadion für P. gingivalis und P. nigrescens • diluent: the corresponding amount of the substances was pippeted directly • Examples of Test organisms: • Actinobacillus actinomycetemcomitans ATCC43718 • Streptococcus gordonii ATCC10558 • Streptococcus mutans ATCC33402 • Actinomyces viscosus ATCC43146 • Fusobacterium nucleatum subsp. polymorphum ATCC1095 • Porphyromonas gingivalis ATCC3277 • Prevotella nigrescens ATCC33563 • Incubation: 7-10 days at 37° C. under anaerobic conditions, resp. 24 h aerobically with 10% CO2 for Streptococci und A. actinomycetemcomitans • Test solution: Stock solutions in ethanol with 1500 ppm (w/w) are used from all test substances
(§2) Bacteria are taken from blood agar plates with cotton swabs and a suitable O.D. is adjusted in the corresponding medium (McFarland 0.5). This solution is used for F. nucleatum and P. nigrescens in undiluted state, for the other strains a dilution of 1:20 is used. To each 2 ml of active ingredient containing solution 0.1 ml of the bacteria culture is added and incubated as described above.

S. gordonii ATCC10558 = assay: MIC vs. oral germs, broth dilution method; format: cell-based, Streptococcus gordonii; settings: for MIC: Streptococcus gordonii, read-out: MHK (MIC) S. gordonii ATCC10558
From the text: as §1, §2

S. mutans ATCC33402 = assay: MIC vs. oral germs, broth dilution method; format: cell-based, Streptococcus mutans; settings: for MIC: Streptococcus mutans, read-out: MHK (MIC) S. mutans ATCC33402
From the text: as §1, §2

A. viscosus ATCC43146 = assay: MIC vs. oral germs, broth dilution method; format: cell-based, Actinomyces viscosus; settings: for MIC: Actinomyces viscosus
From the text: as §1, §2

[2] = tested on: F. nucleatum subsp. polymorphum ATCC10953; assay: MIC vs. oral germs, broth dilution method; format: cell-based, Fusobacterium nucleatum subsp. polymorphum; settings: for MIC: Fusobacterium nucleatum
From the text: as §1, §2

P. gingivalis ATCC3277 = assay: MIC vs. oral germs, broth dilution method; format: cell-based, Porphyromonas gingivalis; settings: for MIC: Porphyromonas gingivalis
From the text: as §1, §2

P. nigrescens ATCC33563 = assay: MIC vs. oral germs, broth dilution method; format: cell-based, Prevotella nigrescens; settings: for MIC: Prevotella nigrescens
From the text: as §1, §2

[3] = tested on: Corynebacterium xerosis ATCC 373; assay: MIC, Agar incorporation test; format: cell-based
Description: (§3) 0.3 ml of each dilution step is mixed with 15 ml of nutrient medium while the latter is still liquid. After the nutrient medium has solidified, 10 μl of each of the following organism dilutions of the test strains in 0.85% NaCl solution are spotted onto the agar medium.
(§4) The plates are incubated during 24 hours at 37° C. and then the highest dilution (lowest concentration) of the test substance at which growth is just no longer discernible (corresponds to the MIC) is determined.

[4] = tested on: Escherischia coli ATCC 10536; assay: MIC, Agar incorporation test; format: cell-based; settings: 24 hours at 37° C.
Description: as §3, §4

[5] = tested on: Propionibacterium acnes ATCC 6919; assay: MIC, Agar incorporation test; format: cell-based
Description: as §3, §4

[6] = tested on: Pseudomonas aeruginosa ATCC 15442; assay: MIC, Agar incorporation test; format: cell-based
Description: as §3, §4

[7] = tested on: Staphylococcus aureus ATCC 6538; assay: MIC, Agar incorporation test; format: cell-based
Description: as §3, §4

[8] = tested on: Staphylococcus epidermidis ATCC 12228; assay: MIC, Agar incorporation test; format: cell-based
Description: as §3, §4

[9] = tested on: Candida albicans ATCC 10231; assay: MIC, Agar incorporation test; format: cell-based; settings: Sabouraud 4% glucose agar, 3 days at 28° C.
Description: 0.3 ml of each dilution step is mixed with 15 ml of nutrient medium while the latter is still liquid. After the nutrient medium has solidified, 10 μl of each of the following organism dilutions of the test strains in 0.85% NaCl solution are spotted onto the agar medium. […]

[10] = tested on: Actinomyces viscosus ATCC 43146; assay: Automatic MIC-Screening, broth dilution method; format: cell-based; settings: micro titer plates, 37° C., 24 hours, tested 120 to 3.75 μg/ml
Description: (§5) Determination of the Minimum Inhibitory Concentration (MIC Value)
(§6) 8 μl of each dilution step is mixed with 192 μl of nutrient medium in micro titer plates. The plates are incubated at 37° C. for 24 hours and then the highest dilution (lowest concentration) of the test substance at which growth is just no longer discernible is determined (corresponds to the MIC).

[11] = tested on: Corynebacterium sp. (Corynebacterium xerosis ATCC 373 oder C. minutissimum ATCC 23348); assay: Automatic MIC-Screening, broth dilution method; format: cell-based; settings: micro titer plates, 37° C., 24 hours, tested 120 to 3.75 μg/ml
Description: as §5, §6

[12] = tested on: Staphylococcus aureus ATCC 6538; assay: Automatic MIC-Screening, broth dilution method; format: cell-based; settings: micro titer plates, 37° C., 24 hours, tested 120 to 3.75 μg/ml
Description: as §5, §6

[13] = tested on: Aspergillus niger ATCC 6275; assay: MIC, Agar incorporation test; format: cell-based
Description: as §3, §4

[14] = tested on: C. minutissimum ATCC 23348; assay: MIC, Agar incorporation test; format: cell-based; settings: 24 hours at 37° C.
Description: as §3, §4

[15] = tested on: Klebsiella pneumoniae ATCC 4352; assay: MIC, Agar incorporation test; format: cell-based; settings: 24 hours at 37° C.
Description: as §3, §4

[16] = tested on: Proteus vulgaris ATCC 6896; assay: MIC, Agar incorporation test; format: cell-based; settings: 24 hours at 37° C.
Description: as §3, §4

[17] = tested on: Salmonella choleraesuis ATCC 9184; assay: MIC, Agar incorporation test; format: cell-based; settings: 24 hours at 37° C.
[18] = broth dilution, 24 h aerobically with 10% CO2, 37° C.
[19] = broth dilution, 7-10 days at 37° C., anaerobic
[20] = broth dilution, Columbia Bouillon with Hemin and Menadion, 7-10 days at 37° C., anaerobic

Structure (SMILES): CCCCC(CC)COC(=O)C(C#N)=C(O)c1ccc(-c2ccccc2)cc1 (stereo not shown) [(101e), 3-biphenyl-4-yl-2-cyano-3-hydroxy-acrylic acid 2-ethyl-hexylester]
MIC ([1]; ATCC43718, 24 h): > 15 µg/mL | MIC (S. gordonii ATCC10558; ATCC10558, 24 h): < 0.94 µg/mL | MIC (S. mutans ATCC33402; ATCC33402, 24 h): < 0.94 µg/mL | MIC (A. viscosus ATCC43146; ATCC43146, read-out: MHK (MIC) A. viscosus ATCC43146): < 0.94 µg/mL | MIC ([2]; ATCC10953, read-out: MHK (MIC) F. nucleatum subsp. polymorphum ATCC10953): > 15 µg/mL | MIC (P. gingivalis ATCC3277; ATCC3277, read-out: MHK (MIC) P. gingivalis ATCC3277): 15 µg/mL (≈ 39.7 µM) | MIC (P. nigrescens ATCC33563; ATCC33563, read-out: MHK (MIC) P. nigrescens ATCC33563): > 15 µg/mL | MIC ([3]; Corynebacterium xerosis, ATCC373, 24 hours at 37° C.): 1.9 µg/mL (≈ 5.03 µM) | MIC [4]: > 500 µg/mL | MIC ([5]; Cutibacterium acnes, ATCC6919, 24 hours at 37° C.): 0.94 µg/mL (≈ 2.49 µM) | MIC ([6]; Pseudomonas aeruginosa, ATCC15442, 24 hours at 37° C.): > 500 µg/mL | MIC ([7]; Staphylococcus aureus, ATCC6538, 24 hours at 37° C.): 1.9 µg/mL (≈ 5.03 µM) | MIC ([8]; Staphylococcus epidermidis, ATCC12228, 24 hours at 37° C.): 1.9 µg/mL (≈ 5.03 µM) | MIC ([9]; Candida albicans, ATCC10231, 72 h): > 500 µg/mL

MIK (MIC) A. viscosus [10]: <3.75 μγ/ml | MIK (MIC) Corynebacterium sp. [11]: >120 μγ/ml | MIK (MIC) S. aureus [12]: <3.75 μγ/ml | MIC ([1]; ATCC43718, broth dilution, 24 h aerobically with 10% CO2, 37° C.): > 15 µg/mL | MIC (S. gordonii ATCC10558; ATCC10558, broth dilution, 24 h aerobically with 10% CO2, 37° C.): 15 µg/mL (≈ 25 µM) | MIC (S. mutans ATCC33402; ATCC33402, broth dilution, 24 h aerobically with 10% CO2, 37° C.): > 15 µg/mL | MIC (A. viscosus ATCC43146; ATCC43146, broth dilution, 7-10 days at 37° C., anaerobic, read-out: MHK (MIC) A. viscosus ATCC43146): 7.5 µg/mL (≈ 12.5 µM) | MIC ([2]; ATCC10953, broth dilution, 7-10 days at 37° C., anaerobic, read-out: MHK (MIC) F. nucleatum subsp. polymorphum ATCC10953): ≥ 15 µg/mL | MIC (P. gingivalis ATCC3277; ATCC3277, broth dilution, Columbia Bouillon with Hemin and Menadion, 7-10 days at 37° C., anaerobic, read-out: MHK (MIC) P. gingivalis ATCC3277): > 15 µg/mL | MIC (P. nigrescens ATCC33563; ATCC33563, broth dilution, Columbia Bouillon with Hemin and Menadion, 7-10 days at 37° C., anaerobic, read-out: MHK (MIC) P. nigrescens ATCC33563): > 15 µg/mL
Structure (SMILES): CCCCCCCCOC(=O)/C(C#N)=C(\O)c1ccc(-c2ccc(/C(O)=C(\C#N)C(=O)OCCCCCCCC)cc2)cc1 [(102a)]

Structure (SMILES): CCCCC(CC)COC(=O)C(C#N)=C(O)c1ccc(-c2ccc(C(O)=C(C#N)C(=O)OCC(CC)CCCC)cc2)cc1 (stereo not shown) [(102b)]
MHK (MIC) A. actinomycetemcomitans ATCC43718 [1, 18]: >15 ppm | MHK (MIC) S. gordonii ATCC10558 (S. gordonii ATCC10558; [18]): 15 ppm | MHK (MIC) S. mutans ATCC33402 (S. mutans ATCC33402; [18]): >15 ppm | MHK (MIC) A. viscosus ATCC43146 (A. viscosus ATCC43146; [19]): 7.5 ppm | MHK (MIC) F. nucleatum subsp. polymorphum ATCC10953 [2, 19]: >15 ppm | MHK (MIC) P. gingivalis ATCC3277 (P. gingivalis ATCC3277; [20]): >15 ppm | MHK (MIC) P. nigrescens ATCC33563 (P. nigrescens ATCC33563; [20]): >15 ppm | MIC Aspergillus niger ATCC 6275 [13]: >400 ppm | MIC C. minutissimum ATCC 23348 [14]: 50 ppm | MIC Corynebacterium xerosis ATCC 373 ([3]; 24 hours at 37° C.): <1.56 ppm | MIC Escherischia coli ATCC 10536 [4]: >400 ppm | MIC Klebsiella pneumoniae ATCC 4352 [15]: >400 ppm | MIC Propionibacterium acnes ATCC 6919 ([5]; 24 hours at 37° C.): <1.56 ppm | MIC Proteus vulgaris ATCC 6896 [16]: >400 ppm | MIC Pseudomonas aeruginosa ATCC 15442 ([6]; 24 hours at 37° C.): >400 ppm | MIC Staphylococcus aureus ATCC 6538 ([7]; 24 hours at 37° C.): 100 ppm | MIC Staphylococcus epidermidis ATCC 12228 ([8]; 24 hours at 37° C.): 25 ppm | MIC Salmonella choleraesuis ATCC 9184 [17]: >400 ppm | MIC Candida albicans ATCC 10231 [9]: >400 ppm
